Values quoted from earlier work, collected in patent publication US12564579B2, “Topical formulations of (1S)-1-phenyl-2-pyridin-2-ylethanamine” (priority 2020, dated 2026).

Details: clinical trials

N[C@@H](Cc1ccccn1)c1ccccc1 [Lanicemine, (1S)-1-phenyl-2-pyridin-2-ylethanamine]
psychotomimetic side effects: little or no psychotomimetic side effects
study endpoints (development terminated by sponsor): did not meet study endpoints
